In BindingDB's records for doi:10.1016/j.bioorg.2017.03.012 (Alexandria University, 2017) one finds IC50 data, which are given here for 16 molecules.

Usually IC50 stands for the point on the concentration scale where inhibition reaches its midpoint.

The target in assay [1] is T1, Polyunsaturated fatty acid 5-lipoxygenase (Homo sapiens, UniProt P09917).
T1 sequence (P09917 whole entry): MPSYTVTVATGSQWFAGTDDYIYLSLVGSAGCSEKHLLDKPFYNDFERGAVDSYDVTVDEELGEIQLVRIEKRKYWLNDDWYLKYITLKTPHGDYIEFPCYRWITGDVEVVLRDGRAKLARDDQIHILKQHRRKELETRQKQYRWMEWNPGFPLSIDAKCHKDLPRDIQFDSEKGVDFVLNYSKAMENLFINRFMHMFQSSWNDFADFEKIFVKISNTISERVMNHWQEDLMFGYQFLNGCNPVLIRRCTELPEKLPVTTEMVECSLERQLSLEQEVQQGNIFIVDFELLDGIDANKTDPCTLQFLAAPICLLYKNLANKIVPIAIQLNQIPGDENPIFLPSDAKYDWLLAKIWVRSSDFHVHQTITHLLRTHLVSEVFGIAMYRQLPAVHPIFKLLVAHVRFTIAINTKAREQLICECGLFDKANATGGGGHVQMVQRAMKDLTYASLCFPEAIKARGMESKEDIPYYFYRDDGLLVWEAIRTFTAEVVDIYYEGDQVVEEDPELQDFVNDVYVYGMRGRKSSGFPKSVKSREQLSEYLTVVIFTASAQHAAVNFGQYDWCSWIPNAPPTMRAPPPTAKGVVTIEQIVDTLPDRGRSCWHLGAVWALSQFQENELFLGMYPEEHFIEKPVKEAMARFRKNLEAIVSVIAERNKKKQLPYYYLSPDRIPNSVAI
Briefly: In Vitro Lipoxygenase (LOX) Inhibitory Assay. The procedure: All the newly synthesized compounds were also evaluated in vitro for their ability to inhibit lipoxygenase enzyme. This was carried out using Abnova lipoxygenase inhibitor screening assay kit (Catalog No. (KA1329). Inhibitors were dissolved in DMSO and were added to the assay in a final volume of 10 μl before initiating with substrate. Three concentrations were prepared (25, 50 and 100 μM) and the concentration that produced 50% enzyme inhibition was determined according to manufacturer instructions [Plačkov et al., Free Radic. Biol. Med., 97:223-235].

For assay [2], the target named is T2, Prostaglandin G/H synthase 1 (Ovis aries, UniProt P05979).
T2 sequence (P05979 whole entry): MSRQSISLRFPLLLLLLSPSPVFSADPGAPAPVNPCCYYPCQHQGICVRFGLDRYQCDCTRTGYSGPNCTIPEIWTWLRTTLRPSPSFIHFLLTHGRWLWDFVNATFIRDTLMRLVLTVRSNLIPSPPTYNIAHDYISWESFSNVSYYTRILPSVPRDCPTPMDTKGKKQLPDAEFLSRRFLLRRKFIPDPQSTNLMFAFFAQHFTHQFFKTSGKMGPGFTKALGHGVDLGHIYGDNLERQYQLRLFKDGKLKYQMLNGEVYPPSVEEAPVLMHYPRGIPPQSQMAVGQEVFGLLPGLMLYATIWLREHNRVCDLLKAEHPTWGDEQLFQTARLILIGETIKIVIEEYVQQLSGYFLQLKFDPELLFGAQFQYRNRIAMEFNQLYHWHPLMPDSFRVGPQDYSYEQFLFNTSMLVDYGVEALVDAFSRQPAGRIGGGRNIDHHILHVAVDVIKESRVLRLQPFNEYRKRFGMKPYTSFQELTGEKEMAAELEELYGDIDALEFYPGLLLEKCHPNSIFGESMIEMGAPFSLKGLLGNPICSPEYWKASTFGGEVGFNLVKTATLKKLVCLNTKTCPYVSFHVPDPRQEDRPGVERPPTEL
Briefly: In Vitro COX-1 and COX-2 Inhibitory Assay.

Assay [3] concerns the target T3, Prostaglandin G/H synthase 2 (Ovis aries, UniProt P79208).
T3 sequence (P79208 whole entry): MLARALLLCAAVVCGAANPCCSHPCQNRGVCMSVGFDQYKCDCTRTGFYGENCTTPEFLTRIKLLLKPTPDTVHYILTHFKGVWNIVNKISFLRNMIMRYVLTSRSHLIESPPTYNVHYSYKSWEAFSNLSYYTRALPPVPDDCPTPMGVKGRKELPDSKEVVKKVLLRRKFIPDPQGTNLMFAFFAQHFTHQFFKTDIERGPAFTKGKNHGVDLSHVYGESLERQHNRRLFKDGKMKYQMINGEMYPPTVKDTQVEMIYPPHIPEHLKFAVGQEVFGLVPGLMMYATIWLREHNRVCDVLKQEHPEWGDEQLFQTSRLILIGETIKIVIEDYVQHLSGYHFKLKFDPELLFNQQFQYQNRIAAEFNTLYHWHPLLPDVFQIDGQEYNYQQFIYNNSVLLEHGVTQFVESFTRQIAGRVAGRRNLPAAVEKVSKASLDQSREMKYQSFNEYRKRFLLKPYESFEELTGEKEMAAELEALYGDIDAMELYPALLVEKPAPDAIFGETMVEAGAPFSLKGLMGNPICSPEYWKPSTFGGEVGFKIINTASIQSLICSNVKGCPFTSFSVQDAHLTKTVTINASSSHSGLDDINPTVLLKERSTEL
Briefly: In Vitro COX-1 and COX-2 Inhibitory Assay.

Take `Cc1ccc(Cl)c(Nc2ccccc2C(=O)O)c1Cl`: inhibition in assay [1] was half-maximal at 5.64 µM (IC50).
Regarding `O=C(NN1C(=O)CSC1=S)c1sc2ccccc2c1Cl` [3-Chloro-N-(4-oxo-2-thioxothiazolidin-3-yl)benzo[b]thiophene-2-carboxamide (4)], the IC50 turned out to be 6.87 µM in assay [1], 8.7 µM in assay [2] and 2.43 µM in assay [3].
With `COc1ccc(-c2nn(-c3ccccc3)cc2/C=C2\SC(=S)N(NC(=O)c3sc4ccccc4c3Cl)C2=O)cc1` [3-Chloro-N-(5-{[3-(4-methoxyphenyl)-1-phenyl-1H-pyrazol-4-yl]methylene}-4-oxo-2-thioxothiazolidin-3-yl)benzo[b]thiophene-2-carboxamide (5b)], the IC50 amounted to 8.71 µM in assay [1], 7.6 µM in assay [2] and 2.61 µM in assay [3].
With `O=C1Nc2ccccc2/C1=C1\SC(=S)N(NC(=O)c2sc3ccccc3c2Cl)C1=O` [3-Chloro-N-[4-oxo-5-(2-oxoindolin-3-ylidene)-2-thioxothiazolidin-3-yl]benzo[b]thiophene-2-carboxamide (5i)], the IC50 is 6.87 µM in assay [1], 5.9 µM in assay [2] and 1.56 µM in assay [3].
Molecule `COc1ccc(/C=C2\SC(=S)N(NC(=O)c3sc4ccccc4c3Cl)C2=O)cc1OC` [3-Chloro-N-[5-(3,4-dimethoxybenzylidene)-4-oxo-2-thioxothiazolidin-3-yl]benzo [b]thiophene-2-carboxamide (5h)] returned an IC50 in assay [2] of 3.4 µM.
In the case of `O=C(NN1C(=O)/C(=C/c2ccc(Cl)cc2)SC1=S)c1sc2ccccc2c1Cl` [3-Chloro-N-[5-(4-chlorobenzylidene)-4-oxo-2-thioxothiazolidin-3-yl]benzo[b]thiophene-2-carboxamide (5f)], the IC50 in assay [1] was determined as 3.74 µM; in assay [2], 4.9 µM; in assay [3] it was 1.23 µM.
Consider `COc1cc(/C=C2\SC(=S)N(NC(=O)c3sc4ccccc4c3Cl)C2=O)ccc1O` [3-Chloro-N-[5-(4-hydroxy-3-methoxybenzylidene)-4-oxo-2-thioxothiazolidin-3-yl]benzo [b]thiophene-2-carboxamide (5g)], for which the IC50 stood at 6.91 µM in assay [1], 10.4 µM in assay [2] and 4.22 µM in assay [3].
In the case of `COc1ccc(/C=C2\SC(=S)N(NC(=O)c3sc4ccccc4c3Cl)C2=O)cc1` [3-Chloro-N-[5-(4-methoxybenzylidene)-4-oxo-2-thioxothiazolidin-3-yl]benzo[b]thiophene-2-carboxamide (5e)], the results for the IC50 in assay [1], in assay [2] and in assay [3] were 4.97 µM, 6.3 µM and 1.89 µM, respectively.
On to `O=C(NN1C(=O)/C(=C/c2cn(-c3ccccc3)nc2-c2ccccc2)SC1=S)c1sc2ccccc2c1Cl` [3-Chloro-N-{5-[(1,3-diphenyl-1H-pyrazol-4-yl)methylene]-4-oxo-2-thioxothiazolidin-3-yl}benzo[b]thiophene-2-carboxamide (5a)], for which the IC50 was 3.97 µM in assay [1], 5.1 µM in assay [2] and 1.49 µM in assay [3].
The molecule `Cc1ccc(-c2cc(C(F)(F)F)nn2-c2ccc(S(N)(=O)=O)cc2)cc1` [Celecoxib] gave an IC50 in assay [1] of 6.87 µM.
In the case of `O=C(NN1C(=O)CSC1=S)c1cc2ccccc2o1` [N-(4-Oxo-2-thioxothiazolidin-3-yl)benzofuran-2-carboxamide (9)], the IC50 in assay [1] is 5.92 µM; in assay [2] it was 6.8 µM; in assay [3] it was 1.83 µM.
For the molecule `O=C(NN1C(=O)/C(=C/c2ccccc2)SC1=S)c1sc2ccccc2c1Cl` [N-(5-Benzylidene-4-oxo-2-thioxothiazolidin-3-yl)-3-chlorobenzo[b]thiophene-2-carboxamide (5d)], the figures for the IC50 in assay [1], in assay [2] and in assay [3] were 8.74 µM, 10.6 µM and 3.12 µM, respectively.
The corresponding values for `O=C(NN1C(=O)/C(=C/c2cn(-c3ccccc3)nc2-c2ccc(Br)cc2)SC1=S)c1sc2ccccc2c1Cl` [N-(5-{[3-(4-Bromophenyl)-1-phenyl-1H-pyrazol-4-yl]methylene}-4-oxo-2-thioxothiazolidin-3-yl)-3-chlorobenzo[b]thiophene-2-carboxamide (5c)] are 9.51 µM, 12.4 µM and 4.88 µM.
In the case of `O=C(NN1C(=O)/C(=C/c2cn(-c3ccccc3)nc2-c2ccc(Br)cc2)SC1=S)c1cc2ccccc2o1` [N-(5-{[3-(4-Bromophenyl)-1-phenyl-1H-pyrazol-4-yl]methylene}-4-oxo-2-thioxothiazolidin-3-yl)benzofuran-2-carboxamide (10c)], the results for the IC50 in assay [1], in assay [2] and in assay [3] were 10.2 µM, 13.4 µM and 5.32 µM, respectively.
`COc1ccc(-c2nn(-c3ccccc3)cc2/C=C2\SC(=S)N(NC(=O)c3cc4ccccc4o3)C2=O)cc1` [N-(5-{[3-(4-Methoxyphenyl)-1-phenyl-1H-pyrazol-4-yl]methylene}-4-oxo-2-thioxothiazolidin-3-yl)benzofuran-2-carboxamide (10b)]: the IC50 came to 6.91 µM in assay [1], 8.7 µM in assay [2] and 2.74 µM in assay [3].
For `O=C(NN1C(=O)/C(=C/c2cn(-c3ccccc3)nc2-c2ccccc2)SC1=S)c1cc2ccccc2o1` [N-{5-[(1,3-Diphenyl-1H-pyrazol-4-yl)methylene]-4-oxo-2-thioxothiazolidin-3-yl}benzofuran2-carboxamide (10a)], the figures for the IC50 in assay [1], in assay [2] and in assay [3] were 9.21 µM, 12.4 µM and 4.81 µM, respectively.
